Laboratory results reported in PMC3621575 (ACS Chemical Biology, 2012).

Assays:
CDK9 = conditions: primary chronic lymphocytic leukemia cells; cited from earlier work
CRK7 = conditions: primary chronic lymphocytic leukemia cells; cited from earlier work
PCSTAIRE2 = conditions: primary chronic lymphocytic leukemia cells; cited from earlier work
[1] = tested on: human kinome in primary chronic lymphocytic leukemia cells; conditions: cited from earlier work
T. brucei CRK1 = molecular target: T1, T. brucei CRK1 (Trypanosoma brucei brucei, UniProt P38973); assay: Kinobead profiling, T. brucei lysate, CRK1; type: binding; conditions: T. brucei cell lysate
T1 sequence (P38973 1-301): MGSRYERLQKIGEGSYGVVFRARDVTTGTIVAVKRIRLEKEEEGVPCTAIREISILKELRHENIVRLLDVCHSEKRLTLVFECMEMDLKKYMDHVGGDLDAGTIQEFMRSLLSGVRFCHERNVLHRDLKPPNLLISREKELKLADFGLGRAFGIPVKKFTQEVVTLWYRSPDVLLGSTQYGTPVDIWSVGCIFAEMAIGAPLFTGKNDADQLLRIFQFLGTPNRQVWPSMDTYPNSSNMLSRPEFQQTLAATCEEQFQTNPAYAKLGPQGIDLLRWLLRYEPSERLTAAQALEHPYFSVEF

## CC(C)(C)c1cnc(CSc2cnc(NC(=O)C3CCNCC3)s2)o1 [BMS-387032]
CDK9
  kinobead IC50, CDK9: submicromolar
CRK7
  kinobead IC50, CRK7: submicromolar
PCSTAIRE2
  kinobead IC50, PCSTAIRE2: submicromolar
[1]
  observed CDKs inhibited: all of the seven
T. brucei CRK1
  kinobead inhibition of CRK1: no inhibition
